Measurements reported in article PMC3480348, “Structure and Activity Analysis of Inauhzin Analogs as Novel Antitumor Compounds That Induce p53 and Inhibit Cell Growth” (PLoS ONE, 2012).
Entries after “also recorded” stand apart in the source; their conditions may differ. Read-outs that look alike come from different tables or passages of the source. Blank lines part the entries; values can stand above or below the compound they belong to.

How the values were obtained:
[1] = test system: p53 level in H460 cells; assay: p53 induction by immunoblotting (IB) in H460 cells; type: cell-based, human; conditions: 2 µM, 18 hrs; IB normalized to GAPDH, compared to 2 µM INZ
[2] = test system: p53 level in HCT116^+/+ cells; assay: p53 induction by immunoblotting (IB) in HCT116^+/+ cells; type: cell-based, human; conditions: 2 µM, 18 hrs; IB normalized to GAPDH, compared to 2 µM INZ
Experimental: (§1) EC90 values were calculated from the EC50 and Hill slope by a web-based calculator: http://www.graphpad.com/quickcalcs/Ecanything1.cfm.

[3] = test system: p53 level in H460 and HCT116^+/+ cells; assay: p53 induction by immunoblotting (IB), statement does not separate the cell lines; type: cell-based, human; conditions: 18 hrs, 0.5, 2, 10 µM
Text: (A–B) Initial Inauhzin analogs were purchased and tested the activity on H460 and HCT116^+/+ by immunoblotting (IB). […]

[4] = test system: H460 cells; assay: 3-day WST-8 cell growth inhibition assay, H460; type: cell-based, human; conditions: for EC90: read-out: EC90, cell growth inhibition, H460 p53 wild type; for EC90 fold lower than that for INZ, H460: statement covers H460 and HCT116^+/+ together
Experimental: as §1

[5] = test system: HCT116^+/+ cells; assay: 3-day WST-8 cell growth inhibition assay, HCT116^+/+; type: cell-based, human; conditions: for EC50: HCT-116, 72 h WST-8, average of triplicates, highest concentration 50 µM, read-out: EC50, cell growth inhibition, HCT116^+/+ p53 wild type; for EC90 fold lower than that for INZ, HCT116^+/+: statement covers H460 and HCT116^+/+ together; for EC90: read-out: EC90, cell growth inhibition, HCT116^+/+ p53 wild type
Experimental: as §1

[6] = test system: H1299 cells; assay: 3-day WST-8 cell growth inhibition assay, H1299 (p53 null); type: cell-based, human; conditions: for EC50 / EC90: Homo sapiens; for EC50: NCI-H1299, 72 h WST-8, average of triplicates, highest concentration 100 µM; for effect on p53-null H1299 cells compared with p53-containing cells: in vitro cytotoxicity; for EC50 on H1299 fold higher than on H460 cells: p53-null H1299 vs p53-containing H460; for EC90: NCI-H1299, calculated from EC50 and Hill slope
Experimental: as §1

[7] = test system: H460 cells; assay: 3-day WST-8 cell growth inhibition assay, H460; type: cell-based, human; conditions: for EC50: Homo sapiens, NCI-H460, 72 h WST-8, average of triplicates, highest concentration 50 µM, read-out: EC50, cell growth inhibition, H460 p53 wild type
[8] = test system: HCT116^−/− cells; assay: 3-day WST-8 cell growth inhibition assay, HCT116^−/− (p53 null); type: cell-based, human; conditions: for EC50: Homo sapiens, HCT-116, 72 h WST-8, average of triplicates, highest concentration 100 µM; for effect on p53-null HCT116^−/− cells compared with p53-containing cells: in vitro cytotoxicity
[9] = test system: HCT116^−/− cells; assay: as above; type: cell-based; conditions: Homo sapiens, HCT-116, calculated from EC50 and Hill slope
Experimental: as §1

[10] = Homo sapiens, NCI-H460, calculated from EC50 and Hill slope (GraphPad web calculator)
[11] = Homo sapiens, HCT-116, calculated from EC50 and Hill slope

SMILES: CCC(Sc1nnc2c(n1)[nH]c1ccccc12)C(=O)N1c2ccccc2Sc2ccc(Cl)cc21 (stereo not shown) [Compound 6, 2-((5H-[1,2,4]triazino[5,6-b]indol-3-yl)thio)-1-(2-chloro-10H-phenothiazin-10-yl)butan-1-one]
p53 induction in H460 cells [1]: < 50%
p53 induction in HCT116^+/+ cells [2]: < 50%
p53 induction / activation by synthetic analogs [3]: remained active in p53 induction

EC90 [4, 10]: 3.5 to 10 µM
EC90 fold lower than that for INZ, H460 [4]: 3–10 fold
EC50 ([5]; Homo sapiens): 1.3 µM
EC90 fold lower than that for INZ, HCT116^+/+ [5]: 3–10 fold
EC50 [6]: 10.4 µM
EC50 on H1299 fold higher than on H460 cells [6]: 3–15 fold
EC50 [7]: 2.7 µM
EC50 [8]: 5.9 ± 1 µM
SMILES: CCC(Sc1nnc2c(n1)[nH]c1ccccc12)C(=O)N1c2ccccc2Cc2ccccc21 (stereo not shown) [Compound 8, 2-((5H-[1,2,4]triazino[5,6-b]indol-3-yl)thio)-1-(acridin-10(9H)-yl)butan-1-one]
fold higher potency than INZ in growth inhibition of HCT116^+/+ cells ([5]; EC50 compared with INZ): more than 2 fold
effect on p53-null H1299 cells compared with p53-containing cells [6]: much less effective
p53 induction / activation by synthetic analogs [3]: drastically induced p53 at 0.5 µM; also recorded: greater potentcy than compound 1; also recorded: more potent in p53 activation than their parental compound INZ
fold higher potency than INZ in growth inhibition of H460 cells ([7]; EC50 compared with INZ): more than 2 fold
effect on p53-null HCT116^−/− cells compared with p53-containing cells [8]: much less effective

SMILES: CCC(Sc1nnc2c(n1)[nH]c1ccccc12)C(=O)N1c2ccccc2Oc2ccccc21 (stereo not shown) [Compound 9, 2-((5H-[1,2,4]triazino[5,6-b]indol-3-yl)thio)-1-(10H-phenoxazin-10-yl)butan-1-one]
p53 induction / activation by synthetic analogs [3]: inactive

SMILES: CCCCC(Sc1nnc2c(n1)[nH]c1ccccc12)C(=O)N1c2ccccc2Sc2ccccc21 (stereo not shown) [Compound 14, 2-((5H-[1,2,4]triazino[5,6-b]indol-3-yl)thio)-1-(10H-phenothiazin-10-yl)hexan-1-one]
p53 induction / activation by synthetic analogs [3]: lower activity for p53 induction

SMILES: CCC(Sc1nnc2c(n1)[nH]c1cc(F)ccc12)C(=O)N1c2ccccc2Sc2ccccc21 (stereo not shown) [Compound 15, 2-((7-fluoro-5H-[1,2,4]triazino[5,6-b]indol-3-yl)thio)-1-(10H-phenothiazin-10-yl)butan-1-one]
p53 induction / activation by synthetic analogs [3]: inactive

SMILES: CCC(Sc1nnc2c(n1)[nH]c1cc(OC)ccc12)C(=O)N1c2ccccc2Sc2ccccc21 (stereo not shown) [Compound 18, 2-((7-methoxy-5H-[1,2,4]triazino[5,6-b]indol-3-yl)thio)-1-(10H-phenothiazin-10-yl)butan-1-one]
p53 induction / activation by synthetic analogs [3]: marked decrease in p53 activation

EC90 [4, 10]: 26.5 µM
EC90 ([4]; calculated from EC50 and Hill slope (GraphPad web calculator)): 20 to 30 µM
EC90 fold lower than that for INZ, H460 [4]: 1.5 fold
EC90 [5, 11]: 29.7 µM
EC50 ([5]; Homo sapiens): 2.2 ± 0.2 µM
EC90 ([5]; calculated from EC50 and Hill slope): 20 to 30 µM
EC90 [6]: 173 µM
EC50 [6]: 40.2 ± 7.4 µM
EC90 [9]: > 1000 µM
EC50 [7]: 6 ± 0.6 µM
EC50 [8]: 44.2 ± 10.3 µM
SMILES: CCC(Sc1nnc2c(n1)[nH]c1cc(C)ccc12)C(=O)N1c2ccccc2Sc2ccccc21 (stereo not shown) [Compound 19, 2-((7-methyl-5H-[1,2,4]triazino[5,6-b]indol-3-yl)thio)-1-(10H-phenothiazin-10-yl)butan-1-one]
effect on p53-null H1299 cells compared with p53-containing cells [6]: much less effective
p53 induction / activation by synthetic analogs [3]: significant effect on p53 induction compared to INZ at 0.5 µM
effect on p53-null HCT116^−/− cells compared with p53-containing cells [8]: much less effective

EC90 [4, 10]: 9.6 µM
EC90 [5, 11]: 21.9 µM
EC50 ([5]; Homo sapiens): 2.1 ± 1 µM
EC90 [6]: 82.3 µM
EC50 [6]: 12.6 ± 1.4 µM
EC90 [9]: > 1000 µM
EC50 [7]: 4.3 ± 0.3 µM
EC50 [8]: 28.2 ± 1.4 µM
SMILES: CCC(Sc1nnc2c3ccccc3n(C(=O)c3ccccc3)c2n1)C(=O)N1c2ccccc2Sc2ccccc21 (stereo not shown) [Compound 21, 2-((5-benzoyl-5H-[1,2,4]triazino[5,6-b]indol-3-yl)thio)-1-(10H-phenothiazin-10-yl)butan-1-one]
effect on p53-null H1299 cells compared with p53-containing cells [6]: much less effective
effect on p53-null HCT116^−/− cells compared with p53-containing cells [8]: much less effective

EC90 [4, 10]: 20.5 µM
EC50 [7]: 4.9 ± 1 µM
SMILES: CCC(Sc1nnc2c3ccccc3n(C(=O)c3cccnc3)c2n1)C(=O)N1c2ccccc2Sc2ccccc21 (stereo not shown) [Compound 22, 2-((5-nicotinoyl-5H-[1,2,4]triazino[5,6-b]indol-3-yl)thio)-1-(10H-phenothiazin-10-yl)butan-1-one]

EC90 [4, 10]: 22.6 µM
EC50 [7]: 6.7 ± 0.7 µM
SMILES: CCCCCC(=O)C1(SC(CC)C(=O)N2c3ccccc3Sc3ccccc32)N=c2[nH]c3ccccc3c2=NN1 (stereo not shown) [Compound 23, 1-(3-((1-oxo-1-(10H-phenothiazin-10-yl)butan-2-yl)thio)-5H-[1,2,4]triazino[5,6-b]indol-3-yl)hexan-1-one]

EC90 [4, 10]: 14.5 µM
EC50 [7]: 5.7 ± 0.3 µM
SMILES: C=CCCC(=O)n1c2ccccc2c2nnc(SC(CC)C(=O)N3c4ccccc4Sc4ccccc43)nc21 (stereo not shown) [Compound 24, 1-(3-((1-oxo-1-(10H-phenothiazin-10-yl)butan-2-yl)thio)-5H-[1,2, 4]triazino[5,6-b]indol-5-yl)pent-4-en-1-one]

EC90 [4, 10]: 38.2 µM
EC50 [7]: 16 ± 0.9 µM
SMILES: CCC(Sc1nnc2c3ccccc3n(C(=O)CCCCBr)c2n1)C(=O)N1c2ccccc2Sc2ccccc21 (stereo not shown) [Compound 26, 5-bromo-1-(3-((1-oxo-1-(10H-phenothiazin-10-yl)butan-2-yl)thio)-5H-[1,2, 4]triazino[5,6-b]indol-5-yl)pentan-1-one]

EC90 [4, 10]: 9 µM
EC50 [7]: 3.4 ± 0.3 µM
SMILES: CCOC(=O)CCCC(=O)n1c2ccccc2c2nnc(SC(CC)C(=O)N3c4ccccc4Sc4ccccc43)nc21 (stereo not shown) [Compound 27, Ethyl 5-oxo-5-(3-((1-oxo-1-(10H-phenothiazin-10-yl)butan-2-yl)thio)-5H-[1,2,4]triazino[5,6-b]indol-5-yl)pentanoate]

SMILES: CCOC(=O)Cn1c2ccccc2c2nnc(SC(CC)C(=O)N3c4ccccc4Sc4ccccc43)nc21 (stereo not shown) [Compound 28, Ethyl 2-(3-((1-oxo-1-(10H-phenothiazin-10-yl)butan-2-yl)thio)-5H-[1,2,4]triazino[5,6-b]indol-5-yl)acetate]
p53 induction / activation by synthetic analogs [3]: essentially inactive

SMILES: CCC(Sc1nnc2c3ccccc3n(CC(=O)O)c2n1)C(=O)N1c2ccccc2Sc2ccccc21 (stereo not shown) [Compound 29, 2-(3-((1-oxo-1-(10H-phenothiazin-10-yl)butan-2-yl)thio)-5H-[1,2,4]triazino[5,6-b]indol-5-yl)acetic acid]
p53 induction / activation by synthetic analogs [3]: essentially inactive

EC90 [4, 10]: ~7.7 µM
EC90 fold lower than that for INZ, H460 [4]: 5 fold
EC90 [5, 11]: 4.6 µM
EC50 ([5]; Homo sapiens): 0.8 ± 0.5 µM
EC90 fold lower than that for INZ, HCT116^+/+ [5]: 5 fold
EC50 [6]: 16.6 µM
EC50 on H1299 fold higher than on H460 cells [6]: 3–15 fold
EC50 [7]: 3.5 ± 0.4 µM
EC50 [8]: 7.8 ± 3.4 µM
SMILES: CCC(Sc1nnc2c3ccccc3n(CCO)c2n1)C(=O)N1c2ccccc2Sc2ccccc21 (stereo not shown) [Compound 30, 2-((5(2-hydoxyethyl)-5H-[1,2,4]triazino[5,6-b]indol-5-yl)thiol)-1-(10H-phenothiazin-10-yl)butan-1-one]
effect on p53-null H1299 cells compared with p53-containing cells [6]: much less effective
p53 induction / activation by synthetic analogs [3]: comparable to compound 8; also recorded: more potent in p53 activation than their parental compound INZ
effect on p53-null HCT116^−/− cells compared with p53-containing cells [8]: much less effective

SMILES: C#CCCn1c2ccccc2c2nnc(SC(CC)C(=O)N3c4ccccc4Sc4ccccc43)nc21 (stereo not shown) [Compound 32, 2-((5(but-3-yn-1-yl)-5H-[1,2,4]triazino[5,6-b]indol-3-yl)thiol)-1-(10H-phenothiazin-10-yl)butan-1-one]
p53 induction / activation by synthetic analogs [3]: significant decrease in activity

SMILES: CCC(Sc1nnc2c3ccccc3n(CC(=O)c3ccccc3)c2n1)C(=O)N1c2ccccc2Sc2ccccc21 (stereo not shown) [Compound 33, 2-((5-(2-oxo-2-phenylethyl)-5H-[1,2,4]triazino[5,6-b]indol-3-yl)thiol)-1-(10H-phenothiazin-10-yl)butan-1-one]
p53 induction / activation by synthetic analogs [3]: significant decrease in activity

EC90 [4, 10]: 39.9 µM
EC90 [5, 11]: 30.5 µM
EC50 ([5]; Homo sapiens): 2.7 ± 0.3 µM
EC90 fold greater in p53-null cells than in p53-containing cell lines ([6]; H1299, HCT116^−/− vs H460, HCT116^+/+): 5–7 fold
EC90 [6]: 217 µM
EC50 [6]: 11.6 ± 3.4 µM
EC90 [9]: 213 µM
EC50 [7]: 7.7 ± 1.1 µM
EC50 [8]: 13.3 ± 2.4 µM
SMILES: CCC(Sc1nnc2c(n1)[nH]c1ccccc12)C(=O)N1c2ccccc2Sc2ccccc21 (stereo not shown) [INZ, 2-((5H-[1,2,4]triazino[5,6-b]indole-3yl)thio)-1-(10H-phenothiazin-10-yl)butan-1-one]
